{"source": "patent US11180461B2", "about": "“Triazoles as Kv3 inhibitors” (AUTIFONY THERAPEUTICS LIMITED, priority 2012, dated 2021)", "molecular_target": "T1, human Kv3.1 channels (hKv3.1) (Homo sapiens, UniProt P48547)", "T1 construct": "expressed in transfected cells; host or cells: CHO/Gam/E1A-clone22 (CGE22) cells, transduced with BacMam pFBM/human Kv3.1", "T1 sequence (P48547 1-511)": "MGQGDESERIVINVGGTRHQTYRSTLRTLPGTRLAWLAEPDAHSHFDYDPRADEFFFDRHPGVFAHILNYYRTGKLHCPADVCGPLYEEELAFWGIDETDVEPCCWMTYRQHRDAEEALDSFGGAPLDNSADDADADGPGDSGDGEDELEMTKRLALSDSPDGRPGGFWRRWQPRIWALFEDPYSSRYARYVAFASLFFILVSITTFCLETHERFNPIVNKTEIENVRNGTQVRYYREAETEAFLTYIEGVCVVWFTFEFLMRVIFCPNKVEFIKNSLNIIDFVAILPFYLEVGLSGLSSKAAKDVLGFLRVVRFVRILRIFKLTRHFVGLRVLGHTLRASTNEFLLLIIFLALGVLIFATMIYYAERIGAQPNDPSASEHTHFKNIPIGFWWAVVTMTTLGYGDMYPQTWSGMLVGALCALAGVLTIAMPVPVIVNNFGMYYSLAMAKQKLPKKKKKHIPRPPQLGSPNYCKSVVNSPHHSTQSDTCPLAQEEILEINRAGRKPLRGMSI", "test": "hKv3.1 recombinant cell assay, IonWorks Quattro planar array electrophysiology", "format": "cell-based", "conditions": "comparable = activity for one channel less than 2 fold that for the other", "from_the_text": "The ability of the compounds of the invention to modulate the voltage-gated potassium channel subtypes Kv3.2/3.1 may be determined using the following assay. The assay may also be used to determine the ability of compounds of the invention to modulate the voltage-gated potassium channel Kv3.3. Analogous methods may be used to investigate the ability of the compounds of the invention to modulate other channel subtypes.\nTo assess compound effects on human Kv3.1 channels (hKv3.1), CHO/Gam/E1A-clone22 alias CGE22 cells were transduced using a hKv3.1 BacMam reagent. This cell line was designed to be an improved CHO-K1-based host for enhanced recombinant protein expression as compared to wild type CHO-K1. The cell line was generated following the transduction of CHO-K1 cells with a BacMam virus expressing the Adenovirus-Gam1 protein and selection with Geneticin-G418, to generate a stable cell line, CHO/Gam-A3. CHO/Gam-A3 cells were transfected with pCDNA3-E1A-Hygro, followed by hygromycin-B selection and FACS sorting to obtain single-cell clones. […]\nExperiments were conducted at room temperature using IonWorks Quattro™ planar array electrophysiology technology (Molecular Devices Corp.) with PatchPlate™ PPC. […] Planar electrode hole resistances (Rp) were determined by applying a 10 mV voltage step across each well. […]"}
{"smiles": "Cc1ccc(Oc2ccc(-n3c(C)n[nH]c3=O)cn2)c2c1OCC21CC1", "note": "[Example 14, 5-methyl-4-{6-[(7-methylspiro[1-benzofuran-3,1′-cyclopropan]-4-yl)oxy]pyridin-3-yl}-2,4-dihydro-3H-1,2,4-triazol-3-one]", "values": [{"measurement": "activity between modulation of Kv3.1 and Kv3.2 channels", "result": "comparable activity between modulation of Kv3.1 and Kv3.2 channels"}]}
